Test results taken from patent US10927089B2, “Diaryl thioether piperazine compounds, preparation methods and uses thereof” (SUNSHINE LAKE PHARMA CO., LTD., priority 2016, dated 2021).

Assay: Pharmacokinetic evaluation after intramuscular injection to rats
Type: in vivo
Conditions: im, male rat, solution, 17.5 mg/kg, vortioxetine in plasma
Method: The LC/MS/MS system for analysis consists of the Agilent 1200 series vacuum degassing furnace, binary syringe pump, well plate autosampler, column incubator, and API4000 three-stage quadrupole mass spectrometer equipped with electro spray ionization (ESI) source.
Waters XBridge™ C18, 2.1×30 mm, 3.5 μM column was used for analysis, and 20 μL of sample was injected. Analytical conditions: the mobile phase was (2 mM ammonium formate+0.1% formic acid) (A) and (methanol+2 mM ammonium formate+0.1% formic acid) (B). The flow rate was 0.5 mL/min.
In addition, the API4000 Series LC/MS/MS spectrometer for analysis was equipped with a G1312A binary syringe pump, G1367A autosampler and MS/MS detector; ESI source was used in LC/MS/MS spectrometer. Each analyte was treated in a suitable cation model and optimally analyzed by MRM conversion with using standard solutions. Waters XBridge™ C18 was used during the analysis and the size was: 2.1×30 mm, 3.5 μM. The mobile phase was (2 mM ammonium formate+0.1% formic acid) (A) and (methanol+2 mM ammonium formate+0.1% formic acid) (B). The flow rate was 0.5 mL/min; the column temperature was maintained at 40° C.; 15 μL of sample was injected.
The present invention evaluates the pharmacokinetic study of a series of compounds of the invention in rats. The compound of the present invention was added into a mixture formed by dissolving and dispersing Tween-20 and/or Span-20 in water after being subjected to a pretreatment such as grinding, sieving, etc., and was uniformly dispersed and fixed to a constant volume; the suspension was grinded by a ball mill, then administered. The animals were given a vortioxetine solution (17.5 mg/kg) and a suspension of vortioxetine compound (75 mg/kg) by intramuscular injection. After administration, whole blood was collected at 0.25, 1, 2, 5, 7, 24, 48, 72, 96, 120, 148, and 196 h, and plasma was separated and frozen for testing. And the plasma was centrifuge at 12,000 for 2 minutes. Plasma samples were collected and stored at −20° C. or −70° C. until LC/MS/MS analysis. […] The average drug-time curve of some of the compounds of the present invention after intramuscular injection in rats is shown in FIG. 1.

- AUC(0-t) (read-out: Exposure level AUClast): 1370 ng·h/mL
- half-life (read-out: Half-life period T1/2 (converted)): 2.74 h
- Cmax (read-out: Peak concentration Cmax): 530 ng/mL
- Tmax (read-out: Time to peak Tmax): 0.25 h
SMILES: Cc1ccc(Sc2ccccc2N2CCNCC2)c(C)c1 [WTXT, Vortioxetine]
